From patent US12674058B2, “Compound, photosensitive resin composition comprising same, photosensitive resin film, color filter and CMOS image sensor” (SAMSUNG SDI CO., LTD., priority 2021, dated 2026)

Test: Measurement of solubility in dilution solvent (PGMEA)
Format: physicochemical
Settings: 0.5 g compound in PGMEA, stirred at 25° C. for 1 hour
Experimental: 0.5 g of each compound Synthesis Examples 1 to 5 and Comparative Synthesis Examples 1 to 5 was added to a dilution solvent (PGMEA), and each corresponding solution was stirred with Mix-Rotar VMR-5 (Luchi Seieido Co., Ltd.) at 25° C. for 1 hour and then, evaluated with respect to solubility, and the results are shown in Table 2.
Solubility Evaluation Criteria
• 10 wt % or more of the compound (solute) was dissolved in the total amount of the diluent: ∘ • Less than 10 wt % of the compound (solute) was dissolved in the total amount of diluent: X
For `Cc1cccc(C)c1N(CCCN1C(=O)c2ccccc2C1=O)C1=CC2Oc3cc(N(C)CCN(C)c4ccc5c(-c6ccccc6S(=O)(=O)[O-])c6ccc(N(CCCN7C(=O)c8ccccc8C7=O)c7c(C)cccc7C)cc6[o+]c5c4)ccc3C(c3ccccc3S(=O)(=O)O)=C2C=C1` (centres unmarked) [Comparative Synthesis Example 3, reference compound], the Solubility was “X (Less than 10 wt % of the compound (solute) was dissolved in the total amount of diluent)”. For `Cc1cccc(C)c1N(CCCN1C(=O)c2ccccc2C1=O)C1=CC2Oc3cc(N(C)CCCCCCCCCCCN(C)c4ccc5c(-c6ccccc6S(=O)(=O)[O-])c6ccc(N(CCCN7C(=O)c8ccccc8C7=O)c7c(C)cccc7C)cc6[o+]c5c4)ccc3C(c3ccccc3S(=O)(=O)O)=C2C=C1` (centres unmarked) [Comparative Synthesis Example 4, reference compound], the Solubility was “X (Less than 10 wt % of the compound (solute) was dissolved in the total amount of diluent)”. With `CCN(CCCCCCN(CC)c1ccc2c(-c3ccccc3S(=O)(=O)[O-])c3ccc(N(CN4C(=O)c5ccccc5C4=O)c4c(C)cccc4C)cc3[o+]c2c1)c1ccc2c(c1)OC1C=C(N(CN3C(=O)c4ccccc4C3=O)c3c(C)cccc3C)C=CC1=C2c1ccccc1S(=O)(=O)O` (centres unmarked) [Comparative Synthesis Example 5, reference compound] the Solubility was “X (Less than 10 wt % of the compound (solute) was dissolved in the total amount of diluent)”. For `CCN(CCCCCCN(CC)c1ccc2c(-c3ccccc3S(=O)(=O)[O-])c3ccc(N(CCCN4C(=O)c5ccccc5C4=O)c4c(C)cccc4C)cc3[o+]c2c1)c1ccc2c(c1)OC1C=C(N(CCCN3C(=O)c4ccccc4C3=O)c3c(C)cccc3C)C=CC1=C2c1ccccc1S(=O)(=O)O` (centres unmarked) [Synthesis Example 1], the Solubility was “◯”. With `CCN(CCCCCCN(CC)c1ccc2c(-c3ccccc3S(=O)(=O)[O-])c3ccc(N(CCCCN4C(=O)c5ccccc5C4=O)c4c(C)cccc4C)cc3[o+]c2c1)c1ccc2c(c1)OC1C=C(N(CCCCN3C(=O)c4ccccc4C3=O)c3c(C)cccc3C)C=CC1=C2c1ccccc1S(=O)(=O)O` (centres unmarked) [Synthesis Example 2] the Solubility was “◯”. In the case of `CCN(CCCCCCN(CC)c1ccc2c(-c3ccccc3S(=O)(=O)[O-])c3ccc(N(CCN4C(=O)c5ccccc5C4=O)c4c(C)cccc4C)cc3[o+]c2c1)c1ccc2c(c1)OC1C=C(N(CCN3C(=O)c4ccccc4C3=O)c3c(C)cccc3C)C=CC1=C2c1ccccc1S(=O)(=O)O` (centres unmarked) [Synthesis Example 3], the Solubility is reported as “◯”. For `CCN(CCCCCCN(CC)c1ccc2c(-c3ccccc3S(=O)(=O)[O-])c3ccc(N(CCCN4C(=O)c5ccccc5C4=O)c4ccccc4C)cc3[o+]c2c1)c1ccc2c(c1)OC1C=C(N(CCCN3C(=O)c4ccccc4C3=O)c3ccccc3C)C=CC1=C2c1ccccc1S(=O)(=O)O` (centres unmarked) [Synthesis Example 4], the Solubility was “◯”. For `Cc1cccc(C)c1N(CCCN1C(=O)c2ccccc2C1=O)C1=CC2Oc3cc(N(C)CCCN(C)c4ccc5c(-c6ccccc6S(=O)(=O)[O-])c6ccc(N(CCCN7C(=O)c8ccccc8C7=O)c7c(C)cccc7C)cc6[o+]c5c4)ccc3C(c3ccccc3S(=O)(=O)O)=C2C=C1` (centres unmarked) [Synthesis Example 5], the Solubility was “◯”.
